The text below walks through data of US10519177B2, “Heterocyclic compounds and uses thereof” (Plexxikon Inc., priority 2013, dated 2019).

One experiment deals with bromodomain. Put plainly: at least one of the bromodomain cell assays of Example 57. The experiment is classed as cell-based. To be noted: at least one of the bromodomain cell assays described in Example 57; read-out: IC50 in at least one of the bromodomain cell assays.
A further experiment relates to MV-4-11 cells. As to the kind of experiment: Oncology cell growth assay MV-4-11 (CellTiter Glo). The experiment is classed as cell-based. To be noted: read-out: Cell activity (IC50 μM) MV-4-11 3d-Growth. The method in brief: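 MV-4-11 AML cells (MLL-AF4), 3000 per well, exposed to 8-point 1:3 compound titration from 10 μM top concentration (0.2% DMSO) for 72 h. Viability by CellTiter Glo luminescence, normalized to DMSO controls; pIC50 from four-parameter curve fit.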
Background: ATP-based viability assays read luminescence as a measure of living cells.

The next experiment concerns the target BRD4-BD1 (44-164) (Homo sapiens (Human), UniProt O60885). As to the kind of experiment: Alphascreen binding assay BRD4-BD1. To be noted: BRD4(1) H4; read-out: Biochemical activity (IC50 μM) BRD4(1) H4. The method, boiled down:
(§1)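 First, compound was preincubated 1 h at room temperature with the His-tagged BRD4 protein (BD1 44-164 or tandem BD12 1-477) and acetylated H4 peptide. Next, donor and acceptor beads were added at 7.5 μg/ml final. After 30 min, AlphaScreen emission was recorded.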
(In general: Bead proximity is the source of the signal in Alpha formats.)

The target of the next experiment is BRD4-BD12 (1-477) (Homo sapiens (Human), UniProt O60885). Put plainly: Alphascreen binding assay BRD4-BD12. To be noted: BRD4(1 2) H4; read-out: Biochemical activity (IC50 μM) BRD4(1 2) H4. The method in brief:
as §1

As usually defined, the IC50 is the concentration at which inhibition is half-maximal.

Like-named read-outs stand apart in the source and are kept apart here.

Consider `Cc1noc(C)c1-c1cnc2c(c1)c(CC1CCN(C(=O)Nc3ccccc3)CC1)cn2C` [P-0114, 4-[[5-(3,5-dimethylisoxazol-4-yl)-1-methyl-pyrrolo[2,3-b]pyridin-3-yl]methyl]-N-phenyl-piperidine-1-carboxamide], for which the IC50 in the experiment on bromodomain is below 10 µM; with MV-4-11 cells (Homo sapiens, MV4-11, 72 h), below 1 µM; on BRD4-BD1 (44-164), below 1 µM.

In the case of `CCS(=O)(=O)N1CCC(Cc2cn(C)c3ncc(-c4c(C)noc4C)cc23)CC1` [P-0116, 4-[3-[(1-ethylsulfonyl-4-piperidyl)methyl]-1-methyl-pyrrolo[2,3-b]pyridin-5-yl]-3,5-dimethyl-isoxazole], the IC50 is below 10 µM in the experiment on bromodomain; 1 to 10 µM with MV-4-11 cells (Homo sapiens, MV4-11, 72 h); below 1 µM at BRD4-BD1 (44-164).

With `Cc1noc(C)c1-c1cnc2c(c1)c(CC1CCN(S(=O)(=O)C3CCCC3)CC1)cn2C` [P-0119, 4-[3-[(1-cyclopentylsulfonyl-4-piperidyl)methyl]-1-methyl-pyrrolo[2,3-b]pyridin-5-yl]-3,5-dimethyl-isoxazole], the IC50 is below 10 µM in the experiment with bromodomain; 1 to 10 µM with MV-4-11 cells (Homo sapiens, MV4-11, 72 h); 1 to 10 µM at BRD4-BD1 (44-164).

Regarding `Cc1noc(C)c1-c1cnc2c(-c3cnn(CC(F)(F)F)c3)cn(C(C)c3ccccc3)c2c1` (stereo not shown) [P-0202, 3,5-dimethyl-4-[1-(1-phenyl-ethyl)-3-[1-(2,2,2-trifluoro-ethyl)pyrazol-4-yl]pyrrolo[3,2-b]pyridin-6-yl]isoxazole], the IC50 was below 10 µM in the experiment with bromodomain; below 1 µM in the experiment with MV-4-11 cells (Homo sapiens, MV4-11, 72 h); below 1 µM on BRD4-BD1 (44-164).

On to `Cc1noc(C)c1-c1cnc2c(-c3cnn(C)c3)cn(C(C)c3ccccn3)c2c1` (stereo not shown) [P-0217, 3,5-dimethyl-4-[3-(1-methylpyrazol-4-yl)-1-[1-(2-pyridyl)ethyl]pyrrolo[3,2-b]pyridin-6-yl]isoxazole], for which the IC50 in the experiment with bromodomain is below 10 µM; with MV-4-11 cells (Homo sapiens, MV4-11, 72 h), below 1 µM; at BRD4-BD1 (44-164) it was below 1 µM.

Regarding `[2H]C([2H])(C1CC(F)(F)C1)n1cc(-c2cnn(CC(F)(F)F)c2)c2ncc(-c3c(C)noc3C)cc21` [P-0257, 4-[1-[dideuterio-(3,3-difluorocyclobutyl)methyl]-3-[1-(2,2,2-trifluoroethyl)pyrazol-4-yl]pyrrolo[3,2-b]pyridin-6-yl]-3,5-dimethyl-isoxazole], the IC50 is below 10 µM in the experiment with bromodomain; below 1 µM in the experiment with MV-4-11 cells (Homo sapiens, MV4-11, 72 h); below 1 µM at BRD4-BD1 (44-164); below 1 µM on BRD4-BD12 (1-477).

On to `[2H]C([2H])(C1CCC(F)(F)CC1)n1cc(I)c2ncc(-c3c(C)noc3C)cc21` [P-0262, 4-[1-[dideuterio-(4,4-difluorocyclohexyl)methyl]-3-iodo-pyrrolo[3,2-b]pyridin-6-yl]-3,5-dimethyl-isoxazole], for which the IC50 with bromodomain is below 10 µM; in the experiment with MV-4-11 cells (Homo sapiens, MV4-11, 72 h), below 1 µM; on BRD4-BD1 (44-164), below 1 µM; on BRD4-BD12 (1-477), below 1 µM.

With `Cc1noc(C)c1-c1cnc2c(C#CCO)cn(CC3CCC(F)(F)CC3)c2c1` [P-0264, 3-[1-[(4,4-difluorocyclohexyl)methyl]-6-(3,5-dimethylisoxazol-4-yl)pyrrolo[3,2-b]pyridin-3-yl]prop-2-yn-1-ol], the IC50 in the experiment on bromodomain is below 10 µM; in the experiment on MV-4-11 cells (Homo sapiens, MV4-11, 72 h) it was below 1 µM; on BRD4-BD1 (44-164), below 1 µM; at BRD4-BD12 (1-477) it was 1 to 10 µM.

In the case of `Cc1noc(C)c1-c1cnc2c(-c3cnn(CC(F)(F)F)c3)c[nH]c2c1` [P-0265, 3,5-dimethyl-4-[3-[1-(2,2,2-trifluoroethyl)pyrazol-4-yl]-1H-pyrrolo[3,2-b]pyridin-6-yl]isoxazole], the IC50 is below 10 µM with bromodomain; below 1 µM in the experiment on MV-4-11 cells (Homo sapiens, MV4-11, 72 h); below 1 µM on BRD4-BD1 (44-164); below 1 µM on BRD4-BD12 (1-477).

`Cc1noc(C)c1-c1cnc2c(-c3cnn(CC(F)(F)F)c3)cn(C(CC#N)C3CCCC3)c2c1` (stereo not shown) [P-0266, 3-cyclopentyl-3-[6-(3,5-dimethylisoxazol-4-yl)-3-[1-(2,2,2-trifluoroethyl)pyrazol-4-yl]pyrrolo[3,2-b]pyridin-1-vl]propanenitrile]: the IC50 with bromodomain is below 10 µM; with MV-4-11 cells (Homo sapiens, MV4-11, 72 h) it was below 1 µM; at BRD4-BD1 (44-164), below 1 µM; on BRD4-BD12 (1-477) it was below 1 µM.

Turning to `Cc1noc(C)c1-c1cnc2c(-c3cccnc3)cn(C(C)c3ccccc3)c2c1` (stereo not shown) [P-0267], the IC50 in the experiment on bromodomain is below 10 µM; in the experiment on MV-4-11 cells (Homo sapiens, MV4-11, 72 h) it was below 1 µM; on BRD4-BD1 (44-164) it was below 1 µM; on BRD4-BD12 (1-477) it was below 1 µM.

Regarding `Cc1noc(C)c1-c1cnc2c(-c3ccnc(C4CC4)c3)cn(C(C)c3ccccc3)c2c1` (stereo not shown) [P-0268, 4-[3-(2-cyclopropyl-4-pyridyl)-1-(1-phenylethyl)pyrrolo[3,2-b]pyridin-6-yl]-3,5-dimethyl-isoxazole], the IC50 in the experiment with bromodomain was below 10 µM; in the experiment with MV-4-11 cells (Homo sapiens, MV4-11, 72 h), below 1 µM; on BRD4-BD1 (44-164), below 1 µM; at BRD4-BD12 (1-477), below 1 µM.

For the compound `Cc1noc(C)c1-c1cnc2c(-c3ccc(Cl)cc3)cn(C(C)c3ccccc3)c2c1` (stereo not shown) [P-0269, 4-[3-(4-chlorophenyl)-1-(1-phenylethyl)pyrrolo[3,2-b]pyridin-6-yl]-3,5-dimethyl-isoxazole], the IC50 is below 10 µM with bromodomain; 1 to 10 µM with MV-4-11 cells (Homo sapiens, MV4-11, 72 h); below 1 µM on BRD4-BD1 (44-164); below 1 µM at BRD4-BD12 (1-477).

Take `Cc1noc(C)c1-c1cnc2c(-c3ccc(O)nc3)cn(C(C)c3ccccc3)c2c1` (stereo not shown) [P-0270, 5-[6-(3,5-dimethylisoxazol-4-yl)-1-(1-phenylethyl)pyrrolo[3,2-b]pyridin-3-yl]pyridin-2-ol]: the half-inhibitory concentration (IC50) with bromodomain is below 10 µM; in the experiment on MV-4-11 cells (Homo sapiens, MV4-11, 72 h), below 1 µM; at BRD4-BD1 (44-164), below 1 µM; at BRD4-BD12 (1-477), below 1 µM.

Take `COc1ccc(-c2cn(C(C)c3ccccc3)c3cc(-c4c(C)noc4C)cnc23)cn1` (stereo not shown) [P-0271, 4-[3-(6-methoxy-3-pyridyl)-1-(1-phenylethyl)pyrrolo[3,2-b]pyridin-6-yl]-3,5-dimethyl-isoxazole]: the IC50 in the experiment with bromodomain was below 10 µM; in the experiment on MV-4-11 cells (Homo sapiens, MV4-11, 72 h) it was below 1 µM; on BRD4-BD1 (44-164) it was below 1 µM; on BRD4-BD12 (1-477) it was below 1 µM.

As to `Cc1ccc(-c2cn(C(C)c3ccccc3)c3cc(-c4c(C)noc4C)cnc23)cn1` (stereo not shown) [P-0272, 3,5-dimethyl-4-[3-(6-methyl-3-pyridyl)-1-(1-phenylethyl)pyrrolo[3,2-b]pyridin-6-yl]isoxazole], the IC50 was below 10 µM in the experiment on bromodomain; below 1 µM in the experiment with MV-4-11 cells (Homo sapiens, MV4-11, 72 h); below 1 µM at BRD4-BD1 (44-164); below 1 µM on BRD4-BD12 (1-477).

For the compound `Cc1noc(C)c1-c1cnc2c(-c3ccc(C(=O)O)cc3)cn(C(C)c3ccccc3)c2c1` (stereo not shown) [P-0273, 4-[6-(3,5-dimethylisoxazol-4-yl)-1-(1-phenylethyl)pyrrolo[3,2-b]pyridin-3-yl]benzoic acid], the IC50 in the experiment on bromodomain is below 10 µM; with MV-4-11 cells (Homo sapiens, MV4-11, 72 h), below 1 µM; on BRD4-BD1 (44-164) it was below 1 µM; at BRD4-BD12 (1-477), below 1 µM.

Regarding `Cc1noc(C)c1-c1cnc2c(-c3ccc(=O)n(C)c3)cn(C(C)c3ccccc3)c2c1` (stereo not shown) [P-0274, 5-[6-(3,5-dimethylisoxazol-4-yl)-1-(1-phenylethyl)pyrrolo[3,2-b]pyridin-3-yl]-1-methyl-pyridin-2-one], the IC50 with bromodomain was below 10 µM; with MV-4-11 cells (Homo sapiens, MV4-11, 72 h), below 1 µM; at BRD4-BD1 (44-164) it was below 1 µM; at BRD4-BD12 (1-477), below 1 µM.

Take `COc1ncc(-c2cn(C(C)c3ccccc3)c3cc(-c4c(C)noc4C)cnc23)cn1` (stereo not shown) [P-0275, 4-[3-(2-methoxypyrimidin-5-yl)-1-(1-phenylethyl)pyrrolo[3,2-b]pyridin-6-yl]-3,5-dimethyl-isoxazole]: the IC50 in the experiment with bromodomain is below 10 µM; in the experiment with MV-4-11 cells (Homo sapiens, MV4-11, 72 h), below 1 µM; on BRD4-BD1 (44-164), below 1 µM; on BRD4-BD12 (1-477), below 1 µM.

Consider `Cc1noc(C)c1-c1cnc2c(-c3ccc(N)nc3)cn(C(C)c3ccccc3)c2c1` (stereo not shown) [P-0276, 5-[6-(3,5-dimethylisoxazol-4-yl)-1-(1-phenylethyl)pyrrolo[3,2-b]pyridin-3-yl]pyridin-2-amine], for which the IC50 in the experiment with bromodomain was below 10 µM; in the experiment with MV-4-11 cells (Homo sapiens, MV4-11, 72 h) it was below 1 µM; on BRD4-BD1 (44-164) it was below 1 µM; on BRD4-BD12 (1-477), below 1 µM.

With `Cc1noc(C)c1-c1cnc2c(-c3cnc(N)nc3)cn(C(C)c3ccccc3)c2c1` (stereo not shown) [P-0277, 5-[6-(3,5-dimethylisoxazol-4-yl)-1-(1-phenylethyl)pyrrolo[3,2-b]pyridin-3-yl]pyrimidin-2-amine], the IC50 in the experiment on bromodomain was below 10 µM; in the experiment on MV-4-11 cells (Homo sapiens, MV4-11, 72 h), below 1 µM; at BRD4-BD1 (44-164), below 1 µM; at BRD4-BD12 (1-477), below 1 µM.

As for `Cc1n[nH]cc1-c1cnc2ccn(CC3CCC(F)(F)CC3)c2c1` [P-0292, l-[(4,4-difluorocyclohexyl)methyl]-6-(3-methyl-1H-pyrazol-4-yl)pyrrolo[3,2-b]pyridine], the IC50 with bromodomain was below 10 µM; in the experiment on MV-4-11 cells (Homo sapiens, MV4-11, 72 h) it was 1 to 10 µM; at BRD4-BD1 (44-164), 10 to 200 µM.

As to “[6-(3,5-dimethylisoxazol-4-yl)-1H-pyrrolo[3,2-b]pyridin-3-yl]-tetrahydrothiopyran-4-yl-methanone [P-0091]”, the IC50 in the experiment on bromodomain was below 10 µM; in the experiment with MV-4-11 cells (MV-4-11 3d-Growth) it was 1 to 10 µM; on BRD4-BD1 (44-164) it was below 1 µM.
